Target: T1, human Polq polymerase domain (Homo sapiens, UniProt O75417)
T1 sequence (O75417 1792-2590): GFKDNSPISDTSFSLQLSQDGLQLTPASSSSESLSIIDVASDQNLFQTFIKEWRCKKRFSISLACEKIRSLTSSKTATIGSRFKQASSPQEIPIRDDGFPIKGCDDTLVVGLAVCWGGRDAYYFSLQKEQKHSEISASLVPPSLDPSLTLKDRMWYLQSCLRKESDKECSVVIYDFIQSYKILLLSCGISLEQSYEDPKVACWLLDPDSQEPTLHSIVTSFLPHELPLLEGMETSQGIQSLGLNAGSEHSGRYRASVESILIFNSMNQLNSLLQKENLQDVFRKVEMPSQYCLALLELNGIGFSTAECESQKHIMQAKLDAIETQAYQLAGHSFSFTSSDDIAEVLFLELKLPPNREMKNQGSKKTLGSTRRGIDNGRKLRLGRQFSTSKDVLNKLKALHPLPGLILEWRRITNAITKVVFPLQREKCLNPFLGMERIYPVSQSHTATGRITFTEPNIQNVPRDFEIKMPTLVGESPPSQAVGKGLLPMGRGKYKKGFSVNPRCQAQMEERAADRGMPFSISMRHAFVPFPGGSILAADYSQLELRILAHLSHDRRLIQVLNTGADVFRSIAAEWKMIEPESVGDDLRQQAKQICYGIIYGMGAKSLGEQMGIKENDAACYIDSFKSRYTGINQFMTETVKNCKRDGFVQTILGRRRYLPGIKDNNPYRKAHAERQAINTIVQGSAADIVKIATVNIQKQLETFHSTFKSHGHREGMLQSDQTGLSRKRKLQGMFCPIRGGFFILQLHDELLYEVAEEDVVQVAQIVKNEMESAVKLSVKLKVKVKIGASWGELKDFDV
Assay: Cy5 fluorescence assay of Polq polymerase domain inhibition
Assay type: biochemical
Conditions: not given
Protocol: The following Cy5 fluorescence assay was used to measure the ability of compounds to inhibit Polq polymerase domain in vitro. The fluorescent based assay was performed as follows: 60 nM of the pre-annealed primer-template containing a 5′ Cy5 fluorophore conjugated template strand (SEQ ID NO:3: 5′-/5Cy5/[…]-3′), a downstream complementary oligo conjugated with a 3′ Blackhole quencher (SEQ ID NO:4: 5′-CTAAGCTCACAGTG/3IAbRQSp/-3′) and a primer strand (SEQ ID NO:5: 5′-CTGTCCTGCATGATG-3′) was mixed with 50 uM 2′-deoxyribonucleoside triphosphates (dNTPs), 0.1 mg/mL Bovine serum albumin (BSA), 0.01% NP-40, 10% glycerol, 1 mM dithiothreitol (DTT), 10 mM MgCl2, 25 mM TrisHCl pH 7.8 in the presence of 2.5% DMSO with or without various concentrations (7-point dilution series) of Polq small molecule inhibitors represented by Formula I at 37 °C in a volume of 40 μL.

Compound | IC50
CN1C(=O)CN(c2cc(C(F)(F)F)cc(C(F)(F)F)c2OC(=O)N(C)c2ccc(F)cc2)C1=O [Example 27, 2-(3-methyl-2,4-dioxoimidazolidin-1-yl)-4,6-bis(trifluoromethyl)phenyl N-(4-fluorophenyl)-N-methylcarbamate] | 24 nM
CN(C(=O)Oc1c(N2CCN(CCO)C2=O)cc(Cl)cc1C(F)(F)F)c1ccc(F)cc1 [Example 54, 4-chloro-2-(3-(2-hydroxyethyl)-2-oxoimidazolidin-1-yl)-6-(trifluoromethyl)phenyl (4-fluorophenyl)(methyl)carbamate] | 68 nM
Cc1nc(N(C)C(=O)Oc2c(N3CCNC3=O)cc(C(F)(F)F)cc2C(F)(F)F)ccc1F [Example 53, 2-(2-oxoimidazolidin-1-yl)-4,6-bis(trifluoromethyl)phenyl (5-fluoro-6-methylpyridin-2-yl)(methyl)carbamate] | 2.7 nM
[2H]C([2H])([2H])N(C(=O)Oc1c(N2CCN(CC(O)CN(C)C)C2=O)cc(C(F)(F)F)cc1C(F)(F)F)c1ccc(F)c(Cl)c1F (centres unmarked) [Example 40, 2-(3-(3-(dimethylamino)-2-hydroxypropyl)-2-oxoimidazolidin-1-yl)-4,6-bis(trifluoromethyl)phenyl (3-chloro-2,4-difluorophenyl)(methyl-d3)carbamate] | 6.3 nM
Cc1cc(C(F)(F)F)cc(N2CCNC2=O)c1OC(=O)N(C)c1ccc(F)c(Cl)c1 [Example 14, 2-methyl-6-(2-oxoimidazolidin-1-yl)-4-(trifluoromethyl)phenyl (3-chloro-4-fluorophenyl)(methyl)carbamate] | 45 nM
[2H]C([2H])([2H])N(C(=O)Oc1c(N2CCN(CCn3ccnc3)C2=O)cc(C(F)(F)F)cc1C(F)(F)F)c1ccc(F)cc1 [Example 42, 2-(3-(2-(1H-imidazol-1-yl)ethyl)-2-oxoimidazolidin-1-yl)-4,6-bis(trifluoromethyl)phenyl (4-fluorophenyl)(methyl-d3)carbamate] | 11.7 nM
Cc1cc(N(C)C(=O)Oc2c(N3CCNC3=O)cc(C(F)(F)F)cc2C(F)(F)F)ccc1F [Example 28, 2-(2-oxoimidazolidin-1-yl)-4,6-bis(trifluoromethyl)phenyl N-(4-fluoro-3-methylphenyl)-N-methylcarbamate] | 1200 nM
CN(C(=O)Oc1c(N2CCNC2=O)cc(C(F)(F)F)cc1C(F)(F)F)c1ccc(OC(F)F)cc1 [Example 26, 2-(2-oxoimidazolidin-1-yl)-4,6-bis(trifluoromethyl)phenyl (4-(difluoromethoxy)phenyl)(methyl)carbamate] | 48 nM
Cc1cc(C(F)(F)F)cc(N2C[C@H](O)CC2=O)c1OC(=O)N(C)c1ccc(F)cc1 [Example 12, (R)-2-(4-hydroxy-2-oxopyrrolidin-1-yl)-6-methyl-4-(trifluoromethyl)phenyl (4-fluorophenyl)(methyl)carbamate] | 4.4 nM
[2H]C([2H])([2H])N(C(=O)Oc1c(N2CCN(CC3(OS(N)(=O)=O)CN(C(=O)OC(C)(C)C)C3)C2=O)cc(C(F)(F)F)cc1C(F)(F)F)c1ccc(F)c(Cl)c1F [Example 39, tert-butyl 3-((3-(2-(((3-chloro-2,4-difluorophenyl)(methyl-d3)carbamoyl)oxy)-3,5-bis(trifluoromethyl)phenyl)-2-oxoimidazolidin-1-yl)methyl)-3-(sulfamoyloxy)azetidine-1-carboxylate] | 3.8 nM
CN(C(=O)Oc1c(N2CCNC2=O)cc(C(F)(F)F)cc1C(F)(F)F)c1ccc(F)c(Cl)c1F [Example 7, 2,4-bis(trifluoromethyl)-6-(2-oxoimidazolidin-1-yl)phenyl (3-chloro-2,4-difluorophenyl)(methyl)carbamate] | 4 nM
CNCC(O)CN1CCN(c2cc(C(F)(F)F)cc(C(F)(F)F)c2OC(=O)N(C)c2ccc(F)c(Cl)c2F)C1=O (centres unmarked) [Example 47, 2-(3-(2-hydroxy-3-(methylamino)propyl)-2-oxoimidazolidin-1-yl)-4,6-bis(trifluoromethyl)phenyl (3-chloro-2,4-difluorophenyl)(methyl)carbamate] | 4.8 nM
CN1CCN(c2cc(C(F)(F)F)cc(C(F)(F)F)c2OC(=O)N(C)c2ccc(F)c(Cl)c2F)C1=O [Example 8, 2,4-bis(trifluoromethyl)-6-(3-methyl-2-oxoimidazolidin-1-yl)phenyl (3-chloro-2,4-difluorophenyl)(methyl)carbamate] | 3.4 nM
CN(C(=O)Oc1c(N2CCN(CCOS(=O)(=O)NC(=O)COCCOCCOCCN)C2=O)cc(C(F)(F)F)cc1C(F)(F)F)c1ccc(F)cc1 [Example 30, 2-(3-(2-(((4-fluorophenyl)(methyl)carbamoyl)oxy)-3,5-bis(trifluoromethyl)phenyl)-2-oxoimidazolidin-1-yl)ethyl (2-(2-(2-(2-aminoehoxy)ethoxy)ethoxy)acetyl)sulfamate] | 2.2 nM
CN(C(=O)Oc1c(N2CCNC2=O)cc(C(F)(F)F)cc1C(F)(F)F)c1ccc(F)cn1 [Example 52, 2-(2-oxoimidazolidin-1-yl)-4,6-bis(trifluoromethyl)phenyl (5-fluoropyridin-2-yl)(methyl)carbamate] | 11.4 nM

Same assay, conditions: 5 nM Polq polymerase domain (residues 1792-2590), 60 nM primer-template, 50 uM dNTPs, 37 °C, 18 min; read-out: IC50 (nM) Polq

Compound | IC50
[2H]C([2H])([2H])N(C(=O)Oc1c(N2CCN(C[C@H](O)CN(C)C)C2=O)cc(C(F)(F)F)cc1C(F)(F)F)c1ccc(F)cc1 [Example 50, (R)-2-(3-(3-(dimethylamino)-2-hydroxypropyl)-2-oxoimidazolidin-1-yl)-4,6-bis(trifluoromethyl)phenyl (4-fluorophenyl)(methyl-d3)carbamate] | 5.1 nM
CC(O)CN1CCN(c2cc(C(F)(F)F)cc(C(F)(F)F)c2OC(=O)N(C)c2ccc(F)cc2)C1=O (centres unmarked) [Example 20, 2,4-bis(trifluoromethyl)-6-(3-(2-hydroxypropyl)-2-oxoimidazolidin-1-yl)phenyl 4-fluorophenylmethylcarbamate] | 2.4 nM
Cc1cc(C(F)(F)F)cc(N2CCOC2=O)c1OC(=O)N(C)c1ccc(F)cc1 [Example 15, 4-(trifluoromethyl)-2-methyl-6-(2-oxooxazolidin-3-yl)phenyl 4-fluorophenylmethylcarbamate] | 80 nM
CNCC(O)CN1CCN(c2cc(C(F)(F)F)cc(C(F)(F)F)c2OC(=O)N(C)c2ccc(F)cc2)C1=O (centres unmarked) [Example 48, 2-(3-(2-hydroxy-3-(methylamino)propyl)-2-oxoimidazolidin-1-yl)-4,6-bis(trifluoromethyl)phenyl (4-fluorophenyl)(methyl)carbamate] | 5.1 nM
CN(C(=O)Oc1c(N2CCCC2)cc(C(F)(F)F)cc1C(F)(F)F)c1ccc(F)cc1 [Example 11, 2,4-bis(trifluoromethyl)-6-(pyrrolidin-1-yl)phenyl 4-fluorophenylmethylcarbamate] | 15 nM
CN(C(=O)Oc1c(N2CC[C@H](O)C2=O)cc(C(F)(F)F)cc1C(F)(F)F)c1ccc(F)cc1 [Example 19, 2,4-bis(trifluoromethyl)-6-((S)-3-hydroxy-2-oxopyrrolidin-1-yl)phenyl 4-fluorophenylmethylcarbamate] | 16 nM
CN1CCN(c2cc(C(F)(F)F)cc(C(F)(F)F)c2OC(=O)N(C)c2ccc(F)cc2)C1=O [Example 5, 2,4-bis(trifluoromethyl)-6-(3-methyl-2-oxoimidazolidin-1-yl)phenyl (4-fluorophenyl)(methyl)carbamate] | 6 nM
CN(C(=O)Cc1c(N2CCNC2=O)cc(C(F)(F)F)cc1C(F)(F)F)c1ccc(F)cc1 [Example 51, N-(4-fluorophenyl)-N-methyl-2-(2-(2-oxoimidazolidin-1-yl)-4,6-bis(trifluoromethyl)phenyl)acetamide] | 117 nM
